According to US20180296623A1, “PHARMACEUTICAL COMPOSITION FOR PROMOTING PERIODONTAL TISSUE GROWTH AND FOR PREVENTION AND TREATMENT OF PERIODONTITIS, CONTAINING MAGNOLIA FLOWER EXTRACT, FRACTION THEREOF OR COMPOUND ISOLATED THEREFROM AS ACTIVE INGREDIENT” (OKINAWA RESEARCH CENTER CO., LTD., priority 2015, published 2018):

Tested on: dental root or periodontal tissue
Assay: Transplantation of mouse molar embedded in agarose beads containing fargesin into host mouse kidney capsule; micro CT
Assay type: in vivo, C57BL/6 mouse
Conditions: beads soaked in 80 μm fargesin in PBS, molar of 5-day-old mouse grafted into kidney capsule of 8-week-old host mouse, 3 weeks, vs PBS control
Description: The following experiment was performed in order to investigate the promoting effect of the fargesin isolated from the Magnolia flower extract on the growth of dental root or periodontal tissue.
Particularly, the fargesin obtained in Example 1 was diluted in PBS (Dainippon Pharmaceuticals Inc., Japan) at the final concentration of 80 μm, and four agarose beads (Affi-Gel Blue Gel, #153-7301, Bio-Rad Laboratories Inc., Japan) were washed with PBS, followed by reaction for at least 60 minutes to allow the fargesin to be absorbed in those beads. For the control, 4 other beads were reacted only with PBS. A 5-day-old C57BL/6 mouse (Sankyo Labo Service Corporation, Japan) was sacrificed, from which molars were extracted from the lower jaws. Dental pulp of the extracted molar was embedded in the agarose beads containing fargesin. For the control, dental pulp of the extracted molar was embedded in the agarose beads containing PBS alone. The agarose beads were each grafted into capsules of the 8-week-old C57BL/6 host mouse (female, Sankyo Labo Service Corporation, Japan) kidneys. The host mice were raised in the conditions of 12 h/12 h light and dark cycle, room temperature, and free feeding. 3 weeks later, the mice were sacrificed, from which the kidneys were extracted. Then, the teeth were observed. The 3D image of the teeth was taken by micro CT (Rigaku R_mCT2).

COc1ccc([C@@H]2OC[C@H]3[C@@H]2CO[C@@H]3c2ccc3c(c2)OCO3)cc1OC [fargesin]
formation of alveolar bone around the grafted tooth: observed | growth of dental root: significant
